Laboratory results published in patent US20060030574A1, “Quinazoline derivatives useful for the treatment of peripheral arterial disease and as phosphodiesterase inhibitors” (Shire Holdings AG, priority 2004, published 2006).
Where “and” joins values, the source holds several entries; their conditions need not be identical. Identical values can stand only once. Like-named read-outs stand apart in the source and are kept apart here. One block for each compound: values may come before it.

Columns and labels:
[1] = biological target: Phosphodiesterase II (h) (Homo sapiens, UniProt O00408); assay: Phosphodiesterase II (h) inhibition; assay type: biochemical
Chain of Phosphodiesterase II (h) (O00408 whole entry): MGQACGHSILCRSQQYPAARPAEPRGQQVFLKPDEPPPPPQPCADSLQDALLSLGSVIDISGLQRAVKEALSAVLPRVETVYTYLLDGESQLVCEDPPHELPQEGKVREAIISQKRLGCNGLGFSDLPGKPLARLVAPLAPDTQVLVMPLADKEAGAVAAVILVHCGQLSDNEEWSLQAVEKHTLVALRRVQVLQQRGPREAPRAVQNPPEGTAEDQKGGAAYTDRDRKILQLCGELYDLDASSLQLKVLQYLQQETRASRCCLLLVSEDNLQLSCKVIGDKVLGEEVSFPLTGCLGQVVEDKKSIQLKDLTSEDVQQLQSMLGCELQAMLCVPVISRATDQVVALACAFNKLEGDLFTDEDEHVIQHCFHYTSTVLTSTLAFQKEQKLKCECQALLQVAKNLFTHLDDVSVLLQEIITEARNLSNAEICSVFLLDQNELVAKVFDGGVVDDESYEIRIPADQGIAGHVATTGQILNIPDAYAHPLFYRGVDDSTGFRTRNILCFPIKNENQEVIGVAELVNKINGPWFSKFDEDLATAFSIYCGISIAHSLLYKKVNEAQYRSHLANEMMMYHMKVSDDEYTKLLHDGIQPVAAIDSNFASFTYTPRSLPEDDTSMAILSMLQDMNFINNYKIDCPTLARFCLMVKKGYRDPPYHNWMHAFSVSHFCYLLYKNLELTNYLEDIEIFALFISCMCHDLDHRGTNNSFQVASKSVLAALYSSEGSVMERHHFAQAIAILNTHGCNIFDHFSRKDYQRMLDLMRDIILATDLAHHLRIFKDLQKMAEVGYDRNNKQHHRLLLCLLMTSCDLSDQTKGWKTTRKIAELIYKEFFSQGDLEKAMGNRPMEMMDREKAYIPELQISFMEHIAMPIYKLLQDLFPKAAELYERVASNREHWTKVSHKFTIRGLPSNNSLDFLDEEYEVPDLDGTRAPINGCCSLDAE

[2] = biological target: Phosphodiesterase I
Text: (§1) The profile of activity against a selection of phosphodiesterases (I-VI) was investigated. The methods used for the evaluation of the biological activity are all well known in the art. See for example, Weishaar et al; Biochem. Pharmacol., 35:787-800.

[3] = system: Phosphodiesterase IV (h); assay: Phosphodiesterase IV (h) inhibition; assay type: biochemical, human; details: 10 μM; percent inhibition of control activity, mean values, n = 2
[4] = biological target: Phosphodiesterase III (h) (Homo sapiens, UniProt Q14432); assay: Phosphodiesterase III (h) inhibition; assay type: biochemical
Chain of Phosphodiesterase III (h) (Q14432 whole entry): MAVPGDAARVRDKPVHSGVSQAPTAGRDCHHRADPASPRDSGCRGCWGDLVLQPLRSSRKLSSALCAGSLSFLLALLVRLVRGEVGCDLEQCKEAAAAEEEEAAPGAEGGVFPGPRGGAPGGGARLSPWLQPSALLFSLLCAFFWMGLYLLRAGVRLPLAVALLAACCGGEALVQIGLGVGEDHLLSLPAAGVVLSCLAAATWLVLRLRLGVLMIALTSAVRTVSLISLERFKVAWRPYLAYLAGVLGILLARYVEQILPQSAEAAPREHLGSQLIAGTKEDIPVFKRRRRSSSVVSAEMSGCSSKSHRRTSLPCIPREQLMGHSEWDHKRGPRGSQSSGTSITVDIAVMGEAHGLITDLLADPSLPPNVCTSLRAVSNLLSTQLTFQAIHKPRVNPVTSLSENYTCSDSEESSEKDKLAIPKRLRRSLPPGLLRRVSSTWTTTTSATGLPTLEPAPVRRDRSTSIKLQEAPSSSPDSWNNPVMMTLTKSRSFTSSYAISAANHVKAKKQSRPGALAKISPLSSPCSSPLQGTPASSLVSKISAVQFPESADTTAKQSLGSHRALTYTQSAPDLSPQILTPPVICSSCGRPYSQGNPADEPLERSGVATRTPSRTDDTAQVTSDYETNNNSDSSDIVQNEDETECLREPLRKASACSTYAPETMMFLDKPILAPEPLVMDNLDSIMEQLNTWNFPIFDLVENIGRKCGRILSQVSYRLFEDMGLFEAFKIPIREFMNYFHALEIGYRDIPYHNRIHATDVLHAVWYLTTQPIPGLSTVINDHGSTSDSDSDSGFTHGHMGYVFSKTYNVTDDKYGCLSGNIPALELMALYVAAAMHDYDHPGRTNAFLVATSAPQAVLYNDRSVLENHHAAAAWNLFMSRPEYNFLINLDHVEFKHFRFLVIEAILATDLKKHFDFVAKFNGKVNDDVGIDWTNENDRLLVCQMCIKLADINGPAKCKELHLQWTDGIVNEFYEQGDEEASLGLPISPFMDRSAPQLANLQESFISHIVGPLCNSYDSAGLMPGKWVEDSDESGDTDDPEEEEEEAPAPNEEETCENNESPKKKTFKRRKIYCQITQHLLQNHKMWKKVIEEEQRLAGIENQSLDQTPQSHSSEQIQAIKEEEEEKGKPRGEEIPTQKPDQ

[5] = biological target: T1, Phosphodiesterase VI (Bos taurus, UniProt P11541+P23439); assay: Phosphodiesterase VI inhibition; assay type: biochemical
T1 sequence (P11541 2-856): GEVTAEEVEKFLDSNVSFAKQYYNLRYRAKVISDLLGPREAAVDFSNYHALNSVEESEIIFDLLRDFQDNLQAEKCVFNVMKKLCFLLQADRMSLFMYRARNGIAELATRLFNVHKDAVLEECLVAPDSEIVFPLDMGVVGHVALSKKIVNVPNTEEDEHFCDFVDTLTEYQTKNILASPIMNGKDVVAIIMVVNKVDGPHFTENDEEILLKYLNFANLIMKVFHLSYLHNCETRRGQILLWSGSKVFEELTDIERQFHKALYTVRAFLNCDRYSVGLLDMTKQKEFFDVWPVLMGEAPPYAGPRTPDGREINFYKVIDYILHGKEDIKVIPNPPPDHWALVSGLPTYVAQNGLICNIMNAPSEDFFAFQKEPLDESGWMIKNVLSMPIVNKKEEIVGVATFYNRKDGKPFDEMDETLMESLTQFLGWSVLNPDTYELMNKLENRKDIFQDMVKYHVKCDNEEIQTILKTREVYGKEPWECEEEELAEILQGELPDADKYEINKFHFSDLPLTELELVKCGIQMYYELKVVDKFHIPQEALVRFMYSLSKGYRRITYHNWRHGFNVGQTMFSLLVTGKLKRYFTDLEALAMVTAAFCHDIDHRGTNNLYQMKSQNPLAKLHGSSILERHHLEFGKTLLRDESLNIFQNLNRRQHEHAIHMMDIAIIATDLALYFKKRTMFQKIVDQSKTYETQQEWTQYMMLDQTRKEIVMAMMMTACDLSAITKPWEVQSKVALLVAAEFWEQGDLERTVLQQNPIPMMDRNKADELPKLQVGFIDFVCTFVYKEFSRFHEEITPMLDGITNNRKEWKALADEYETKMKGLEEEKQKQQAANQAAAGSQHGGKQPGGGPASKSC
T1 sequence (P23439 2-850): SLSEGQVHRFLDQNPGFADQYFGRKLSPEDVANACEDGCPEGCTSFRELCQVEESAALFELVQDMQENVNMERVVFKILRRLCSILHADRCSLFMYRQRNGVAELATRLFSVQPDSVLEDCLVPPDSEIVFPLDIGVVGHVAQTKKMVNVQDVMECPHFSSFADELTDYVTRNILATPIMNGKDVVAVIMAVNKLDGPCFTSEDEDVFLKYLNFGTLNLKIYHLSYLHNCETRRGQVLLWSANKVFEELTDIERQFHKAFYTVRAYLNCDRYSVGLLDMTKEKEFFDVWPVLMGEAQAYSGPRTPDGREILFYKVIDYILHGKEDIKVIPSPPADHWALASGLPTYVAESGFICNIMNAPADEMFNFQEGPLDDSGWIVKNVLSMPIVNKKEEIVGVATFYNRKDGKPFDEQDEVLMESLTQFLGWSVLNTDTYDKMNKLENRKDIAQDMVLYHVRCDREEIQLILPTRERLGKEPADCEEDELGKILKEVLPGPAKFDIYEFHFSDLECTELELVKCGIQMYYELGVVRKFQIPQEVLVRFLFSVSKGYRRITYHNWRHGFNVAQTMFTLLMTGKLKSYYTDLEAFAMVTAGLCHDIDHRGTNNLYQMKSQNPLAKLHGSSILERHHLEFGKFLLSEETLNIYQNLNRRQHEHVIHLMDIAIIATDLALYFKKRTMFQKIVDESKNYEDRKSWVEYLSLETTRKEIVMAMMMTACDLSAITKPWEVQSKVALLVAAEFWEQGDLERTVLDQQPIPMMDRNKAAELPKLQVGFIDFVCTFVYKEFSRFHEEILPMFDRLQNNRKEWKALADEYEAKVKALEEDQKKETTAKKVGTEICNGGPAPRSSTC
T1 sequence (P04972 1-87 partner): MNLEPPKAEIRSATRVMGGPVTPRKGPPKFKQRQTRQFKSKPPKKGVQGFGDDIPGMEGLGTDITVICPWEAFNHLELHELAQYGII
Protocol: The IC50 value against PDEVI was determined.

[6] = biological target: Phosphodiesterase V (h) (Homo sapiens, UniProt O76074); assay: Phosphodiesterase V (h) inhibition; assay type: biochemical
Text: as §1

[7] = Hill coefficient of the reference compound
[8] = Hill coefficient of the test compound

Compound: CCCCCC[C@@H]([C@@H](C)O)n1cnc2c(N)ncnc21 (racemic) [EHNA]
Reference compounds (nH) [1, 7]: (0.7)
IC50 ([1]; control value for the reference compound, read-out: Reference compounds IC50): 2600 nM

Compound: COCc1nc2c([nH]1)c(=O)n(C)c(=O)n2CC(C)C [8-methoxy-IBMX, reference compound]
IC50 ([2]; read-out: Reference compounds IC50, control value for the reference compound): 2410 nM

Compound: O=CC(=O)NC1=Nc2ccc(Cl)c(Cl)c2CN1 [Compound#1, N-(5,6-dichloro-3,4-dihydroquinazolin-2-yl)-2-oxoacetamide]
% inhibition [3]: — (The symbol - indicates an inhibition of less than 10%.)
inhibition at 10 µM [4]: 97%
IC50 ([4]; average of two separate occasions, read-out: IC50 (average)): 0.9 nM
IC50 ([4]; test compound, assay 1 and assay 2 (two separate occasions), read-out: IC50): 0.69 nM and 1.1 nM
inhibition at 10 µM [5]: 89%
(nH) [5, 8]: (1.0)
inhibition at 10 µM [6]: 64%
% inhibition ([2]; 10 μM, percent inhibition of control activity, mean values, n = 2): 26%
inhibition at 10 µM [1]: < 10%

Compound: OCCN(CCO)c1nc(N2CCCCC2)c2nc(N(CCO)CCO)nc(N3CCCCC3)c2n1 [dipyridamole, reference compound]
Reference compounds (nH) [6, 7]: (1.3)

Compound: Cc1[nH]c(=O)c(C#N)cc1-c1ccncc1 [milrinone, reference compound]
Reference compounds (nH) [4, 7]: 0.6

Results, then the compound that gave them:

melting point: 170 °C (dec.)
Compound: O=C1NC2=Nc3ccc(Cl)c(Cl)c3CN2C1O (stereo not shown) [Compound #3, 6,7-dichloro-3-hydroxy-1,5-dihydro-imidazo[2,1-b]quinazolin-2-one]

(nH) [4, 8]: 0.4
Compound: O=C1NC2=NCc3c(ccc(Cl)c3Cl)N2C1O (stereo not shown) [Compound#5, (6,7-Dichloro-1-hydroxy-3,5-dihydro-imidazo[1,2-a]quinazolin-2-one)]
